Data: patent publication US7834242B2, “S-adenosyl-L-methionine synthetase promoter and its use in expression of transgenic genes in plants” (E. I. du Pont de Nemours and Company, priority 2003, dated 2010)

Columns and labels:
[1] = test system: soybean plants; assay: Spray test for tolerance to SU herbicide; assay type: in vivo; settings: 60 grams active ingredient per hectare
Description: Soybean plants, transformed with either pZSL13 or pZSL14, were tested for tolerance to SU herbicide. A spray solution was made containing 60 grams of Thifensulfuron-methyl active ingredient per hectare and 0.25% wt/wt of AL-2999 nonionic surfactant. Thifensulfuron-methyl has the chemical name, methyl 3-[[[[(4-methoxy-6-methyl-1,3,5-triazin-2-yl)amino]carbonyl]amino]sulfonyl]-2-thiophenecarboxylate, and is the active ingredient in the two DuPont sulfonylurea herbicides, HARMONY GT® and PINNACLE®. Either HARMONY GT® or PINNACLE® can be used as the source of this sulfonylurea for the spray test. AL-2999 is a nonionic surfactant, obtainable as ATPLUS UCL 1007® from Uniqema. This mixture was evenly sprayed onto the soybean plants at the 1st or 2nd trifoliate stage of development. After waiting approximately two weeks the results were scored. All wild-type plants (or plants lacking the SAMS:herbicide-resistant ALS transgene) were dead (negative control), all plants from commercially available STS® (Sulfonylurea Tolerant Soybean) seeds were alive (positive control), and plants containing the SAMS:herbicide-resistant ALS transgene from either pZSL13 or pZSL14 also survived. Consequently, either the 1.3-kb (SEQ ID NO:6) or the 2.1-kb (SEQ ID NO:14) fragment from the SAMS gene can drive expression of the mutant ALS gene at levels sufficient to provide tolerance to SU.

[2] = test system: SAMS promoter; assay: Induction of SAMS promoter activity by methionine (GUS activity of SAMS::GUS seedlings); assay type: in vivo, Arabidopsis
Description: (§1) To see if SAMS promoter is regulated by external methionine, the SAMS::GUS transgenic Arabidopsis seeds were germinated in the presence of either H2O, 1× Murashige and Skoog salt (GIBCO BRL), 0.01 mM methionine (Sigma), or 1 mM methionine. Ten days old seedlings from ten independent transgenic lines were analyzed for GUS activity according to the protocol described in Example 5.

[3] = test system: Arabidopsis seeds
Description: as §1

[4] = test system: transgenic Arabidopsis plants; assay: Fluorometric GUS assay of SAMS::GUS transgenic plants; assay type: in vivo, Arabidopsis thaliana; settings: developing seeds of SAMS::GUS Arabidopsis
Description: FIG. 5 depicts a fluorometric GUS expression assay of transgenic Arabidopsis plants harboring the SAMS::GUS expression cassette. Triple samples of flowers, leaves, stems, siliques coats, young seeds, medium seeds, old seeds, and dry seeds collected from SAMS::GUS transgenic Arabidopsis plants were assayed for GUS activity. The graph was generated by Microsoft Excel and the standard deviation is indicated by the upper part of each column.
The activity of the soybean SAMS promoter was tested by its ability to express the GUS reporter gene in transgenic Arabidopsis plants carrying the SAMS promoter::GUS::3′ Nos expression casstette. […]
The GUS activities of the transgenic Arabidopsis plants were further analyzed by a fluorometric assay. For fluorescence analysis, plant tissues were ground in microfuge tubes with extraction buffer, 50 mM phosphate buffer, pH 7.0, 10 mM EDTA, 0.1% Triton X-100, 0.1% N-lauroyl sarcosine, and 10 mM β-mercaptoethanol, to homogeneity. The samples were centrifuged at 14,000 rpm for 10 minutes, and aliquots of the supernatant were used to determine protein concentrations by the Bradford method (Bio-Rad, Hercules, Calif.) using 96 well microtiter plates read with a kinetic microplate reader (Molecular Devices, Sunnyvale, Calif.). […] Data were entered into a Microsoft Excel spread sheet and analyzed. […]

**Q.** With `COC(=O)c1sccc1S(=O)(=O)NC(=O)Nc1nc(C)nc(OC)n1` [Thifensulfuron-methyl, methyl 3-[[[[(4-methoxy-6-methyl-1,3,5-triazin-2-yl)amino]carbonyl]amino]sulfonyl]-2-thiophenecarboxylate] as the molecule, how does the “Plant survival after spray” value ([1]; plants containing SAMS:herbicide-resistant ALS transgene from pZSL13 or pZSL14, approximately two weeks) read?
**A.** survived

**Q.** What about the “Plant survival after spray” value ([1]; plants from commercially available STS seeds, approximately two weeks) of the same molecule?
**A.** alive

**Q.** And the “Plant survival after spray” value ([1]; wild-type plants (lacking transgene), 0.25% AL-2999, scored after approximately two weeks)?
**A.** dead

**Q.** `CSCC[C@H](N)C(=O)O` [methionine] was tested. Which “SAMS activity induced (GUS activity) compared to H2O treatment” value ([2]; 0.01 mM free methionine, ten days old seedlings, ten transgenic lines) did it give?
**A.** more than two-fold

**Q.** And the “Induction effect of SAMS promoter” value ([2]; 1 mM methionine)?
**A.** less than that by 0.01 mM methionine

**Q.** What about the “Toxic effect on seedlings” value ([3]; 1 mM methionine) of the same molecule?
**A.** smaller sizes and shorter roots of the seedlings

**Q.** And the “Toxic effect on germination and survival” value ([3]; 10 mM free methionine)?
**A.** only a few Arabidopsis seeds were able to germinate and none survived

B1: SAMS promoter: soybean S-adenosyl-L-methionine synthetase promoter fragment, 1314 bp, SEQ ID NO:6 (nucleic acid)
DNA: TCTAGATCAAACTCACATCCAAACATAACATGGATATCTCCTTACCAATCATACTAATTATTTTGGGTTAAATATTAATCATTATTTTTAAGATATTAATTAAGAAATTAAAAGATTTTTTAAAAAAATGTATAAAATTATATTATTCATGATTTTTCATACATTTGATTTTGATAATAAATATATTTTTTTTAATTTCTTAAAAAATGTTGCAAGACACTTATTAGACATAGTCTTGTTCTGTTTACAAAAGCATTCATCATTTAATACATTAAAAAATATTTAATACTAACAGTAGAATCTTCTTGTGAGTGGTGTGGGAGTAGGCAACCTGGCATTGAAACGAGAGAAAGAGAGTCAGAACCAGAAGACAAATAAAAAGTATGCAACAAACAAATCAAAATCAAAGGGCAAAGGCTGGGGTTGGCTCAATTGGTTGCTACATTCAATTTTCAACTCAGTCAACGGTTGAGATTCACTCTGACTTCCCCAATCTAAGCCGCGGATGCAAACGGTTGAATCTAACCCACAATCCAATCTCGTTACTTAGGGGCTTTTCCGTCATTAACTCACCCCTGCCACCCGGTTTCCCTATAAATTGGAACTCAATGCTCCCCTCTAAACTCGTATCGCTTCAGAGTTGAGACCAAGACACACTCGTTCATATATCTCTCTGCTCTTCTCTTCTCTTCTACCTCTCAAGGTACTTTTCTTCTCCCTCTACCAAATCCTAGATTCCGTGGTTCAATTTCGGATCTTGCACTTCTGGTTTGCTTTGCCTTGCTTTTTCCTCAACTGGGTCCATCTAGGATCCATGTGAAACTCTACTCTTTCTTTAATATCTGCGGAATACGCGTTGGACTTTCAGATCTAGTCGAAATCATTTCATAATTGCCTTTCTTTCTTTTAGCTTATGAGAAATAAAATCATTTTTTTTTATTTCAAAATAAACCTTGGGCCTTGTGCTGACTGAGATGGGGTTTGGTGATTACAGAATTTTAGCGAATTTTGTAATTGTACTTGTTTGTCTGTAGTTTTGTTTTGTTTTCTTGTTTCTCATACATTCCTTAGGCTTCAATTTTATTCGAGTATAGGTCACAATAGGAATTCAAACTTTGAGCAGGGGAATTAATCCCTTCCTTCAAATCCAGTTTGTTTGTATATATGTTTAAAAAATGAAACTTTTGCTTTAAATTCTATTATAACTTTTTTTATGGCAAAAATTTTTGCATGTGTCTTTGCTCTCCTGTTGTAAATTTACTGTTTAGGTACTAACTCTAGGCTTGTTGTGCAGTTTTTGAAGTATAACCATGG
modifications: Glycine max
**Q.** B1 was tested. Which GUS specific activities [4] did it give?
**A.** 5-40 pmole 4-Mu (4-methylumbelliferone) per microgram protein per minute
